According to patent US6284910A, “Farnesyl pyrophosphate analogs” (University of Kentucky Research Foundation, priority 1999, dated 2001):
Entries after “also recorded” stand apart in the source; their conditions may differ.

Key:
Xenopus laevis oocytes = test: Xenopus laevis oocyte maturation assay (GVBD) with oncogenic H-Ras in mevinolin-treated oocytes; assay type: cell-based
Description: Recently, a novel methodology involving the microinjection of known amounts of Ras into Xenopus oocytes has been described (see references 24, 45, infra), thereby permitting a quantitative structure-function analysis of H-Ras farnesyl-group for signal transduction in vivo. The approach makes use of enzymatic methods to attach structurally related farnesyl analogs onto the prenylation site of H-Ras combined with microinjection procedures to study their in vivo function. Oocytes are naturally arrested at the G2-M boundary of the first meiotic cell division. (See reference 80, infra). When microinjected with oncogenic H-Ras, oocytes reenter the cell cycle, which is monitored by germinal vesicle breakdown (GVBD) by the appearance of a white spot in the animal hemisphere. GVBD is accompanied by activation of the mitogen-activated protein kinase (MAPK) cascade. (See 81, 82, infra). […] (See references 24, 45, infra). These biochemical effects are strictly dependent on in vivo farnesylation of the injected H-Ras protein since mutation of the CaaX prenylation motif, blocking isoprenoid biosynthesis, and inhibition of FTase in oocytes all suppress these activities. (See references 83-85, infra). Thus, the system provides a method to study the in vivo role of prenylation by analyzing the ability of FPP analogues to rescue H-Ras biological functions in isoprenoid-depleted oocytes. […] Oocytes were isolated from X. laevis females and allowed to recover overnight. (See 24, 45, infra).

squalene synthase = biological target: T1, squalene synthase (Bos taurus, UniProt Q32KR6); test: Conversion of [^3 H]AGPP to organic soluble products by squalene synthase; assay type: biochemical, bovine; details: in vitro; listed as [^3 H]AGPP
T1 construct: squalene synthase activity present in bovine brain microsome fractions; from tissue; host or cells: bovine brain microsomes (crude)
T1 sequence (Q32KR6 1-417): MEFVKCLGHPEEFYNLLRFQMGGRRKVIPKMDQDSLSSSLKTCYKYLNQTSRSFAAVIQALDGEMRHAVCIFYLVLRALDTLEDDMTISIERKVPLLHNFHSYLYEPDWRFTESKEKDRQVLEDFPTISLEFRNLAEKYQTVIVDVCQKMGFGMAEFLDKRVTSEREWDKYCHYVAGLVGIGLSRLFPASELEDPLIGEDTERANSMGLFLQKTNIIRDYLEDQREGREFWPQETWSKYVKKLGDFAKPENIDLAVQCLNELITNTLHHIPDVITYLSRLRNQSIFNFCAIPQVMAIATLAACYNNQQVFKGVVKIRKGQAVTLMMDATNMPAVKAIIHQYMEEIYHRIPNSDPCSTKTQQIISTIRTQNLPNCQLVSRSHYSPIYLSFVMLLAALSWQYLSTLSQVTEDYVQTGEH
Procedure: Assay for Squalene Synthase Activity--Initial rates of squalene synthase activity present in bovine brain microsome fractions were assayed as previously described (19) with minor modifications. […] […] Assay mixtures were incubated for 30 min at 37° C., and the reactions terminated by the addition of 50 μl of 40% (wt/vol) KOH and then 100 μl of 95% ethanol. The resulting mixtures were incubated at 60° C. for 2 h and then cooled to room temperature. Authentic carrier squalene (20 μg) was added to each reaction tube, which were then extracted three times with petroleum ether. The lipid extracts were pooled, washed with water three times, and evaporated under a stream of N2. The lipid residue was redissolved in 100 μl CHCl3 /CH3 OH (2:1 vol/vol) and an aliquot (30 μl) was taken to determine the amount of labeled lipid formed by scintillation spectrometry. The remaining sample was analyzed on Silica gel G 60 TLC plates by developing with hexane (33). In all analyses the squalene standard was located by anisaldehyde spray reagent (34), and radioactive zones were located with a Bioscan Imaging System 200-IBM.
Some of the previously characterized FTase inhibitors, particularly those competitive for FPP binding, have been described as inhibitors of squalene synthase, an enzyme that utilizes FPP and is an important secondary regulatory protein in the cholesterol biosynthetic pathway (38).

recombinant GGTase I = biological target: T2, recombinant GGTase I (Rattus norvegicus, UniProt P53610+Q04631); test: Inhibition of CAAX GGTase I transfer of [^3 H]geranylgeranyl from [^3 H]GGPP to H-Ras-CVLL; assay type: biochemical
T2 construct: 6xHis (N); made in house; host or cells: Sf9 insect cells (baculovirus)
Procedure: The assay mixtures contained (in a final volume of 25 μl) various components as described in "Experimental Procedures". After incubation for 15 min at 37° C., the amount of [^3 H]prenyl group transferred to the appropriate protein substrate [H-Ras (CVLS) for FTase and H-Ras (CVLL) for CAAX GGTase] was measured by precipitation with ethanol-HCl. The assays contained 10 ng recombinant rat FTase, 5 μM H-Ras, and 0.6 μM [^3 H]FPP (33,000 dpm/pmol) or 100 ng recombinant rat CAAX GGTase, 5 μM H-Ras CVLL, and 1 μM [^3 H]GGPP (33,000 dpm/pmol) and the indicated concentration of unlabeled AGPP. […] Each value is the average of duplicate incubations and is representative of two separate experiments.
Unless otherwise stated, each reaction contained the following components in a final volume of 25 μl: 50 mM Tris-HCl (pH 7.4), 5 mM dithiothreitol, 20 μM Zwittergent (3-14), 1 μM [^3 H]GGPP (33,000 dpm/pmol; American Radiochemical Co.), 5 μM p21^H-ras CVLL, 5 μM ZnCl2, 5 mM MgCl2, 100 ng recombinant CAAX GGTase-1, and the indicated amount of unlabeled AGPP. Following incubation at 37° C. for 15 min, the amount of [^3 H]geranylgeranyl transferred was measured by ethanol-HCl precipitation followed by filtration on glass fiber filters. A blank value was determined in parallel incubation mixtures containing no enzyme and was subtracted from each reaction.
The assays contained 10 ng recombinant rat FTase, 5 μM H-Ras, and 0.6 μM [^3 H]FPP (33,000 dpm/pmol) or 100 ng recombinant rat CAAX GGTase, 5 μM H-Ras CVLL, and 1 μM [^3 H]GGPP (33,000 dpm/pmol) and the indicated concentration of unlabeled AGPP.

C/C(=C\COP(=O)(O)OP(=O)(O)O)CC/C=C(\C)CNc1ccccc1 [AGPP, (E,E)-8-Aniline-3,7-dimethyl-2,6-octadiene pyrophosphate]
additional time necessary to achieve 50% maturation versus FPP (Xenopus laevis oocytes; H-Ras and AGPP, mevinolin-treated oocytes, longer than for FPP): 2 to 4 h
rescue of oncogenic H-Ras biological activity (oocyte maturation) (Xenopus laevis oocytes; co-microinjected with oncogenic H-Ras, 50 μM mevinolin-treated oocytes): rescues the biological activity of oncogenic H-Ras in isoprenoid depleted oocytes with delayed maturation kinetics relative to FPP; also recorded: rescues the ability of H-Ras to induce oocyte maturation in mevinolin-treated cells
effect when given without H-Ras (Xenopus laevis oocytes; compound alone): neither FPP nor AGPP alone displayed any biological effect
conversion to organic soluble products (squalene synthase): showed no activity; also recorded: failed to detect any conversion
IC50 (recombinant GGTase I; 1 μM [^3 H]GGPP, 5 μM H-Ras CVLL, 37° C., 15 min): 31 µM
GGTase I activity remaining (recombinant GGTase I; AGPP concentrations of greater than 100 μM, 15 min): approximately 20%
selectivity: better inhibitor of FTase than GGTase I (recombinant GGTase I; FTase vs GGTase I): 50 fold
